Experimental data taken from patent US12590105B2, “KRas G12C inhibitors” (Eli Lilly and Company, priority 2020, dated 2026).

Columns and labels:
[1] = test system: phosphorylation of p-ERK1/2 in H358 cells; experiment: H358 Cellular Phospho-ERK AlphaLISA; type: cell-based; details: NCI-H358; H358 human lung cancer cells, 2 hours incubation; read-out: relative IC50, inhibition of phosphorylation of p-ERK1/2
Excerpt: The purpose of this assay is to measure the ability of test compounds to inhibit the phosphorylation of p-ERK1/2, a downstream effector of KRas in human lung cancer cells H358 (ATCC CRL-5807). Briefly, the AlphaLISA® SureFire® Ultra™ p-ERK 1/2 (Thr202/Tyr204) assay is a sandwich immunoassay for quantitative detection of phospho-ERK 1/2 (phosphorylated on Thr202/Tyr204 in ERK1, or Thr185/Tyr187 in ERK2) in cellular lysates using Alpha Technology (Perkin Elmer Cat #ALSU-PERK-A50K).
H358 cells are plated at 40K cells per well in 100 μL media (RPMI 1640, GIBCO Cat #22400-071) containing 10% FBS (GIBCO Cat #: 10082-147) in a 96 well plate (Costar #3596) and are incubated overnight in humid trays at 37° C., 5% CO2. […] The assay plate is then read on an EnVision™ Plate Reader (Perkin Elmer) using a luminescence program. […]

[2] = biological target: T1, constitutive RAS GTPase activity in H358 cells (Homo sapiens, UniProt P01116, G12C); experiment: H358 Cellular Active RAS GTPase ELISA; type: cell-based; details: H358 human lung cancer cells, serum free media, 2 hours incubation; read-out: relative IC50, inhibition of constitutive RAS GTPase activity
T1 construct: host or cells: H358 human lung cancer cells
Excerpt: The purpose of this assay is to measure the ability of test compounds to inhibit constitutive RAS GTPase activity in human lung cancer cells H358 (ATCC CRL-5807). The RAS GTPase ELISA kit (Active Motif Cat #52097) contains a 96-well plate pre-coated with glutathione in order to capture a kit-supplied GST-Raf-RBD protein. Activated RAS (GTP-bound) in cell extracts specifically bind to the Raf-RBD. Bound RAS is detected with a primary antibody that recognizes human KRas. A secondary antibody conjugated with HRP recognizes the primary antibody and a development solution provides a chemiluminescent readout.
H358 cells are plated at 80,000 cells/well in 90 μL serum free media (RPMI 1640, GIBCO) and incubated overnight at 37° C./5% CO2. The next morning, 10 μL of serially-diluted (3-fold) test compounds (500 μM top concentration) and 10 μL of controls (Maximum signal wells: 5% DMSO and Minimum signal wells: 500 μM 1-[4-[6-chloro-8-fluoro-7-(3-hydroxy-1-naphthyl)quinazolin-4-yl]piperazin-1-yl]prop-2-en-1-one, WO2015054572 as an inhibitor) are added to the cell plate and incubated for 2 hours at 37° C./5% CO2. Complete Lysis/Binding Buffer is prepared containing Protease Inhibitor cocktail and GST-Raf-RBD and stored on ice. […] The assay plate is then read on an EnVision™ Plate Reader (Perkin Elmer) using a luminescence program. […]

[3] = biological target: KRas G12C (Homo sapiens, UniProt P01116, G12C); experiment: KRas G12C Probe Occupancy TR-FRET Assay; details: His-tagged KRas G12C; inhibitor incubated 5 or 60 minutes (which one applies is not stated); read-out: relative IC50, competition with KRas Probe for binding to and covalently modifying KRas G12C
Excerpt: The purpose of this assay is to measure the ability of an inhibitor to compete with a probe for binding to and covalently modifying KRas G12C at codon 12. The signal is generated by the time-resolved transfer of fluorescence between europium on an antibody bound to KRas G12C Europium-labeled Anti-Histidine Tag Antibody LanthaScreen (the Eu Anti-His antibody) and fluorescent Tracer 647 (Alexa Fluor™) bound to KRas G12C through streptavidin and a biotinylated inhibitor (the “KRas Probe”, see Preparation 59).
Inhibitors are tested in dose response format from 10 mM stocks in 100% DMSO. The Labycyte Echo® 555 is used to dilute and transfer 100 nL per well containing a 10 point, 2.8-fold serial dilution to an assay plate. Two copies of the assay plate are prepared to measure the potency after 5 and 60 minutes incubation of the inhibitor with KRas G12C. His-tagged KRas G12C (20 nM) is added to the plates in assay buffer (20 mM Tris-HCl, pH 7.5, 0.01% TX-100, and 1 mM DTT). After 5 or 60 minutes incubation, 1 μM KRas Probe is added and allowed to covalently modify free KRas G12C for 1 hour. […] After 30 minutes, the fluorescent signal is read on an Envision™ Plate Reader (excitation at 340 nm, tracer emission (em) at […], and antibody emission at 615 nm). […]

T1 sequence (P01116 1-188 isoform P01116-2 G12C): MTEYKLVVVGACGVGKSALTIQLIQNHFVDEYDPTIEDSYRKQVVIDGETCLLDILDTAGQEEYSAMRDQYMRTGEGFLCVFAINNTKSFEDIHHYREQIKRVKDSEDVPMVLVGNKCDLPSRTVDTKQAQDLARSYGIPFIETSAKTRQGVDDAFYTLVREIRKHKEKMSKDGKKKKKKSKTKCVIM
Sequence of KRas G12C (P01116 1-188 isoform P01116-2 G12C): as above

IC50 [1]: 0.089 µM
IC50 [2]: 0.326 µM
IC50 [3]: 0.034 µM
SMILES: C=CC(=O)N1CCN2C(=O)c3cc(Cl)c(-c4ccc(F)c5sccc45)c(Cl)c3OCC[C@H]2C1 (single isomer, unassigned) [Example 2]
